Measurements as given in publication PMC4549706, “Rational Design of Highly Potent and Slow-Binding Cytochrome bc1 Inhibitor as Fungicide by Computational Substitution Optimization” (Scientific Reports, 2015).

Key:
bc1 complex = target: T1, bc1 complex (Sus scrofa, UniProt P24964); assay: bc1 complex activity, DBH2-cytochrome c system (Assay 3); format: biochemical, porcine
T1 construct: T h e S C R f r o m p o r c i n e h e a r t; from tissue; host or cells: porcine heart
Description: Figure 3 Inhibitory kinetics of bc1 complex. (A) Chemical structures of AZ (azoxystrobin) and its analogues, compound 1 and compound 18. These compounds have a common pharmacophore structure: methoxyacrylate (MOA). […] Each reaction mixture contains phosphate buffered saline (PBS; 100 mM, pH 6.5), ethylenediaminetetraacetic acid (EDTA; 2 mM), lauryl maltoside (750 μM), oxidised cytochrome c (100 μM), SCR (0.05 nM), DBH2 (20–120 μM) and a specified amount of AZ (1, 0 nM; 2, 500 nM; 3, 1000 nM; 4, 2000 nM; 5, 3000 nM; and 6, 5000 nM). (C) Compound 1 is non-competitive with respect to cytochrome c. The reaction mixture contains 100 mM, pH 7.4), EDTA (0.3 mM), succinate (20 mM), SCR (0.1 nM), cytochrome c (1.13–15.6 μM), and a series of concentrations of compound 1 (1, 0 nM; 2, 10 nM; 3, 20 nM; 4, 40 nM; and 5, 60 nM). (D) Compound 1 is competitive with respect to DBH2. Each reaction mixture contains 100 mM, pH 6.5), EDTA (2 mM), lauryl maltoside (750 μM), oxidised cytochrome c (100 μM), SCR (0.05 nM), DBH2 (20–120 μM) and a specified amount of compound 1 (1, 0 nM; 2, 50 nM; 3, 100 nM; 4, 200 nM; 5, 300 nM; and 6, 500 nM).
(§1) Figure 4 Slow-binding inhibition mechanism. (A,B) Effect of various concentrations of cytochrome c and compound 18 on the inhibition of SCR activity. Each reaction mixture contains 100 mM, pH 7.4), EDTA (0.3 mM), succinate (20 mM), SCR (0.1 nM), and indicated amounts of cytochrome c and compound 18. The assays were performed in the presence of (A) 18 (35 nM) and a specified amount of cytochrome c (1, 4 μM; 2, 8 μM; 3, 20 μM; and 4, 48 μM) or (B) cytochrome c (60 μM) and various concentrations of compound 18 (1, 0 nM; 2, 15 nM; 3, 20 nM; 4, 30 nM; 5, 40 nM; and 6, 50 nM). Experimental data are shown as coloured dots and theoretical values are represented as black solid lines. Insets: plots of Kobs against concentration of (A) cytochrome c and (B) compound 18. […] Each reaction mixture contains 100 mM, pH 6.5), EDTA (2 mM), lauryl maltoside (750 μM), oxidised cytochrome c (100 μM), SCR (0.05 nM), and indicated amounts of DBH2 and compound 18. Two representative sets of inhibitory assays were performed in the presence of (C) DBH2 (20 μM) and a specified amount of compound 18 (1, 20 nM; 2, 40 nM; 3, 60 nM; 4, 80 nM), or (D) DBH2 (120 μM) and a specified amount of compound 18 (1, 40 nM; 2, 80 nM; 3, 120 nM; 4, 180 nM). Insets: plots of Kobs against concentration of compound 18. (E) Plot of the apparent rate constant A against concentration of DBH2. Inset: Plot of 1/A against concentration of DBH2. (F) Plot of the apparent rate constant B against concentration of DBH2.
(§2) The porcine succinate-cytochrome c reductase (SCR, the mixture of complex II and bc1) was prepared essentially according to the previously reported method. The enzymatic activities of SCR, complex II, and bc1 complex were analyzed in respective reaction mixtures as reported previously. Kinetic analyses for the inhibition mechanism were performed as previously described. […]
(§3) inhibitory kinetics study of bc1 inhibitors 8. […]
(§4) synthesized compounds against bc1 complex were examined by SCR. As previously described 9, the combined activity of SCR can be determined by using succinate and cytochrome c as substrates (Assay 1). We also measured the activity of complex II by using succinate and 2,6-dichloroindophenol (DCIP) as substrates (Assay 2), or the activity of bc1 complex by using decylubiquinol (DBH2) and cytochrome c as substrates (Assay 3). […]
redA 10, was used to represent the enzyme concentration. The three redox reactions used in this study were summarized as follows. […]

[1] = target: T2, porcine succinate-cytochrome c reductase (SCR, the mixture of complex II and bc1) (Sus scrofa, UniProt P24964); assay: SCR activity, succinate-cytochrome c system (Assay 1); format: biochemical; settings: for ligand efficiency (LE): from Ki against bc1 complex; for binding behaviour to bc1 complex (slow or fast binding): progress curves of SCR-catalysed reaction
T2 construct: T h e S C R f r o m p o r c i n e h e a r t; from tissue; host or cells: porcine heart
Description: as §1, §2, §3, §4
redA 10, was used to represent the enzyme concentration. The three redox reactions used in this study were summarized as follows.
Assay 1: succinate + cytochrome c3+ S C R fumarate + cytochrome c2+
Assay 2: succinate + DCIP complex II fumarate + DCIPH 2
Assay 3: DBH 2 + cytochrome c3+ bc1 complex DB + cytochrome c2+
All assays were performed at 23 °C. The enzymatic activity of SCR (Assay 1) was carried out in 1.8 mL of reaction mixture containing 100 mM PBS (pH 7.4), 0.3 mM EDTA, and indicated concentrations of succinate and oxidized cytochrome c (Sigma-Aldrich). The activity of succinate-ubiquinone reductase (complex II, Assay 2) was determined in essentially the same reaction mixture, except for the replacement of cytochrome c with DCIP (Alfa Aesar). […] DBH 2 was prepared through reduction of decylubiquinone by dithionite (Sigma-Aldrich) as previously described 11,12. The nonionic detergent LM was used to decrease the interfering non-enzymatic activity though it slightly […]

T2 sequence (P24964 whole entry, one chain of several): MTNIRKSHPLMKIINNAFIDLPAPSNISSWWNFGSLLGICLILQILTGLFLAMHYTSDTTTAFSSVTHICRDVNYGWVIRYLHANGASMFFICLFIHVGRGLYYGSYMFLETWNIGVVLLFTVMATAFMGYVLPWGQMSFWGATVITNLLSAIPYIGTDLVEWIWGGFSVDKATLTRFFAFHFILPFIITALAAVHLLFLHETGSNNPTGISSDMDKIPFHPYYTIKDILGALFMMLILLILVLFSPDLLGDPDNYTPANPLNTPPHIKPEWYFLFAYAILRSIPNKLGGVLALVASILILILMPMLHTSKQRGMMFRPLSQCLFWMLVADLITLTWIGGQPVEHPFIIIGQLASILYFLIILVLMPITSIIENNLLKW
T1 sequence (P24964 whole entry, one chain of several): as above

Row | SMILES | Ki (bc1 complex) | inhibition type with respect to DBH2 (bc1 complex; Assay 3, varied DBH2) | ligand efficiency (LE) [1] | binding behaviour to bc1 complex (slow or fast binding) [1] | microscopic inhibition rate constant k+0 (bc1 complex; Assay 3, varied DBH2) | microscopic inhibition rate constant k−0 (bc1 complex; Assay 3, varied DBH2) | Ki [1] | inhibition type with respect to cytochrome c ([1]; Assay 1, varied cytochrome c) | ∆∆Gexp ([1]; Table S1, experimental binding free energy change vs compound 1) | ΔΔGexp ([1]; experimental binding free energy change relative to compound 1) | kon ([1]; read-out: association rate constant k+0) | koff ([1]; read-out: dissociation rate constant k−0)
1 | CO/C=C(/C(=O)OC)c1ccccc1Oc1cc(Oc2ccccc2C#N)ncn1 [AZ, Azoxystrobin, reference compound] | 395 ± 19.6 nM | competitive inhibitor | 0.3 kcal mol^−1 per non-H atom | fast-binding |  |  |  |  |  |  |  | 
2 | COC=C(C(=O)OC)c1ccccc1CSc1nc2cc(OC)ccc2s1 [Compound 18] | 13.4 ± 0.6 nM | competitive inhibitor | 0.45 kcal mol^−1 per non-H atom | slow-binding | 380000 ± 10000 M⁻¹ s⁻¹ | 0.00509 ± 0.00009 s⁻¹ | 4.1 ± 0.5 nM | non-competitive | -1.20 kcal/mol | -1.20 kcal/mol | 660000 ± 10000 M⁻¹ s⁻¹ | 0.00271 ± 0.00031 s⁻¹
